Patent US6825230B2, “Spiro and dispiro 1,2,4-trixolane antimalarials” (Medicines for Malaria Venture MMV, priority 2002, dated 2004)

Experiments:
[1] = tested on: chloroquine-resistant K1 strain of P. falciparum; test: In vitro antimalarial semiautomated microdilution assay ([3H]-hypoxanthine incorporation), K1 strain; assay type: cell-based, Plasmodium falciparum; settings: Plasmodium falciparum, K1, 72 h, read-out: IC50 (ng/ml) K1, chloroquine-resistant K1 strain, 72 h incubation
How it was run: (§1)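 Semiautomated microdilution against intraerythrocytic P. falciparum from asynchronous stock cultures, with growth tracked by [3H]-hypoxanthine incorporation. IC50 values were estimated by Logit regression analysis.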

[2] = tested on: chloroquine-sensitive NF54 strain of P. falciparum; test: In vitro antimalarial semiautomated microdilution assay ([3H]-hypoxanthine incorporation), NF54 strain; assay type: cell-based, Plasmodium falciparum; settings: Plasmodium falciparum, NF54, 72 h, read-out: IC50 (ng/ml) NF54, chloroquine-sensitive NF54 strain, 72 h incubation
How it was run: as §1

[3] = tested on: ANKA strain of P. berghei; test: Single dose STI in vivo screen in infected mice; set-up: species or system Plasmodium berghei
P. berghei ANKA strain = test: Onset of action and recrudescence experiment, single 100 mg/kg po; assay type: in vivo, Plasmodium berghei; settings: single 100 mg/kg po (SSV) on day +3 post-infection; recrudescence = >5% parasitemia; followed up to 60 days; groups of five
Schistosoma japonicum = test: Effect in mice infected with Schistosoma japonicum; assay type: in vivo; settings: for MFWB (mean female worm burden) x ± SD: control 11.6 ± 2.4; for MTWB (mean total worm burden) x ± SD: control 26.6 ± 4.2
[4] = tested on: Schistosoma mansoni 21-day-old schistosomules; test: Effect on 21-day-old schistosomules in infected mice; assay type: in vivo; settings: single 200 mg/kg per os, 21-day-old schistosomules
Description: Mice were infected with 100 Schistosoma mansoni cercariae on day 21 post-treatment. Each group was treated per os with trioxolanes at a single dose of 200 mg/kg. […] All groups were killed 4 weeks after treatment and the liver and intestine were removed and separated. The liver and intestine were compressed and alive male and female worms could be seen and counted. The effect of the compounds was evaluated by mean total and female worm burden.

[5] = tested on: Schistosoma mansoni adult worms (49-day-old); test: Effect on adult schistosomes (49-day-old) in infected mice; assay type: in vivo
Description: Mice were infected with 100 Schistosoma mansoni cercariae on day 49 post-treatment. Each group was treated per os with OZ compounds at single doses of 200, 400, and 600 mg/kg. Untreated mice served as the control. All groups were killed 4 weeks after treatment and the liver and intestine were removed and separated. The liver and intestine were compressed and alive male and female worms could be seen and counted.

S. haematobium = test: In vivo activity against S. haematobium; set-up: species or system Schistosoma haematobium; settings: 1 x 200 mg/kg p.o.
[6] = tested on: ANKA strain of Plasmodium berghei; test: Single dose ED50/ED90/ED99 determination in infected mice; assay type: in vivo; settings: single dose po in SSV on day 1 post-infection, parasitemia day 3, nonlinear fitting
How it was run: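 Moro SPF or NMRI mice (three per group) infected with P. berghei ANKA were dosed once on day 1 post-infection in SSV (0.5% CMC, 0.5% benzyl alcohol, 0.4% Tween 80, 0.9% NaCl). Parasitemia reduction was scored on day 3; ED values (mg/kg) came from nonlinear fitting.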

[7] = Differential scanning calorimetry (DSC) thermal stability; assay type: physicochemical; settings: thermal decomposition
[8] = 1 x 200 mg/kg p.o. (table footnote)
[9] = 1 x 400 mg/kg p.o. (table footnote)
[10] = age of worm 7 days, 200 mg/kg x 1
[11] = age of worm 35 days, 200 mg/kg x 1
[12] = age of worm 35 days, 400 mg/kg x 1

Structure (SMILES): Cc1ccc(S(=O)(=O)O)cc1.NC[C@H]1CC[C@]2(CC1)OOC1(O2)C2CC3CC(C2)CC1C3 (stereo partly shown) [OZ207]
- IC50 [1]: 0.33 ng/mL
- IC50 [2]: 0.57 ng/mL
- Survival (days) 10 mg/kg po ([3]; single 10 mg/kg po in 3% ethanol and 7% Tween 80, untreated 6-7 days): 9.3 days
- Activity (%) 10 mg/kg po ([3]; single 10 mg/kg po in 3% ethanol and 7% Tween 80 on day 1 post-infection, percent reduction in parasitemia on day 3): 99.96%
- Survival (days) 10 mg/kg SSV po ([3]; single 10 mg/kg po in SSV, untreated 6-7 days): 12.0 days
- Activity (%) 10 mg/kg SSV po ([3]; single 10 mg/kg po in standard suspending vehicle (SSV) on day 1 post-infection, percent reduction in parasitemia on day 3): 99.98%
- Survival (days) 10 mg/kg sc ([3]; single 10 mg/kg sc in 3% ethanol and 7% Tween 80, untreated 6-7 days): 11.3 days
- Activity (%) 10 mg/kg sc ([3]; single 10 mg/kg sc in 3% ethanol and 7% Tween 80 on day 1 post-infection, percent reduction in parasitemia on day 3): 99.98%
- Time of Recrudescence (days) (P. berghei ANKA strain): no recrudescence observed
- S. Japonicum FWR (Schistosoma japonicum; [8]): 95%
- S. Japonicum TWR (Schistosoma japonicum; [8]): 66%
- S. Japonicum FWR (Schistosoma japonicum; [9]): 94%
- S. Japonicum TWR (Schistosoma japonicum; [9]): 84%
- Mice without female worm (Schistosoma japonicum; [10]): 0/8
- MFWB (mean female worm burden) x ± SD (Schistosoma japonicum; [10]): 2.1 ± 1.0
- MTWB (mean total worm burden) x ± SD (Schistosoma japonicum; [10]): 5.4 ± 2.4
- Mice without female worm (Schistosoma japonicum; [11]): 4/7
- MFWB (mean female worm burden) x ± SD (Schistosoma japonicum; [11]): 0.6 ± 0.7
- MTWB (mean total worm burden) x ± SD (Schistosoma japonicum; [11]): 9.1 ± 3.9
- Mice without female worm (Schistosoma japonicum; [12]): 4/6
- MFWB (mean female worm burden) x ± SD (Schistosoma japonicum; [12]): 0.7 ± 1.2
- MTWB (mean total worm burden) x ± SD (Schistosoma japonicum; [12]): 4.3 ± 1.2
- % reduction of schistosomule growth at day 21 after per os application of 200 mg/kg, FWR (%) ([4]; female worm reduction rate): 100%
- % reduction of schistosomule growth at day 21 after per os application of 200 mg/kg, TWR (%) ([4]; total worm reduction rate): 93%
- % reduction of adult worms growth at day 49 after per os application of 200 mg/kg, TWR (%) ([5]; single 200 mg/kg per os, 49-day-old adults, total worm reduction rate): 32%
- Adult worms day 49, per os 200 mg/kg, DEAD WORM (%) ([5]; single 200 mg/kg per os, percentage of dead worm in the liver): 17%
- % reduction of adult worms growth at day 49 after per os application of 400 mg/kg, TWR (%) ([5]; single 400 mg/kg per os, 49-day-old adults, total worm reduction rate): 35%
- Adult worms day 49, per os 400 mg/kg, DEAD WORM (%) ([5]; single 400 mg/kg per os, percentage of dead worm in the liver): 21%
- % reduction of adult worms growth at day 49 after per os application of 600 mg/kg, TWR (%) ([5]; single 600 mg/kg per os, 49-day-old adults, total worm reduction rate): 11/ %
- Adult worms day 49, per os 600 mg/kg, DEAD WORM (%) ([5]; single 600 mg/kg per os, percentage of dead worm in the liver): 24++ %
- S. haematobium DEAD WORM (S. haematobium): 68%
- S. haematobium TWR (S. haematobium): 73%
- ED50 ([6]; Plasmodium berghei, po): 0.37 mg/kg
- ED90 [6]: 1.2 mg/kg
- ED99 [6]: 3.0 mg/kg

Structure (SMILES): C[C@@H]1CC[C@H]2[C@@H](C)C(=O)O[C@@H]3O[C@@]4(C)CC[C@@H]1[C@]32OO4 [Artemisinin, artemisinin, reference compound]
- Time of Recrudescence (P. berghei ANKA strain): 8.4 days
- Tm, dec (DSC) [7]: 181 °C
